# According to US20060241099A1 (Pliva-Istrazivacki Institut d.o.o., priority 2003, published 2006):
# Experiments:
# 5-HT2A receptor = target: T1, 5-HT2A receptor (Homo sapiens, UniProt P28223); experiment: radioligand binding assay for 5-HT2A receptor ([3H]-ketanserin); settings: human cortex or recombinant 5-HT2A receptor expressed in CHO-K1 cells; for IC50: read-out: binding affinity to 5-HT2A serotonin receptor expressed as IC50 value; for Ki: read-out: binding affinity to 5-HT2A serotonin receptor, Ki value
# T1 construct: expressed in transfected cells; host or cells: CHO-K1 (or human cortex tissue)
# T1 sequence (P28223 whole entry): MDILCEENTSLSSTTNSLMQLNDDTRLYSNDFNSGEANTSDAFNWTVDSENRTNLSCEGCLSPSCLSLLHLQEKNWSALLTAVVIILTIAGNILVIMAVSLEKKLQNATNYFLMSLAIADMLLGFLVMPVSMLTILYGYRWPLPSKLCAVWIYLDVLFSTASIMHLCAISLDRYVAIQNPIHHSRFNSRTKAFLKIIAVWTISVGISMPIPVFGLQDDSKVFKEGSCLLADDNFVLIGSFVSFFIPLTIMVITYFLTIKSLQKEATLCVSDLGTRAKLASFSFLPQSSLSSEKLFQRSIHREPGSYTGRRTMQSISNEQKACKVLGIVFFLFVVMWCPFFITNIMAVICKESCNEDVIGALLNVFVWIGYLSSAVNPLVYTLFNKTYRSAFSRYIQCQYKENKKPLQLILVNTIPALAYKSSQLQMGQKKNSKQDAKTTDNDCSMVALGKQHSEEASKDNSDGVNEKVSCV
# Protocol: (§1) The effect of the compounds of the present invention on the neurochemical steady state was determined by in vitro investigations such as a radionuclide-marked radioligand binding assay for 5-HT2A (Bonhaus D. W. Br. J. Pharmacol. 1995, 115:622; Saucier C. J. Neurochem. 1997, 68:1998) and 5-HT2C receptors (Wolf W. A. J. Neurochem. 1997, 69:1449), in vitro binding assay for al receptor (Thomson W. and Donn R. Arthritis Res. 2002, 4: 302-306) and by in vivo investigations in a tail suspension test (Vogel H. G. and Vogel W. H. Drug Discovery and Evaluation Pharmacological Assays, Springer 1997, 304), in amphethamine-induced hyperlocomotion in mice (Millan M. J. et al, 1998 J Pharmacol. Exp. Ther. 287: 167-186) in a forced swim test in mice (Porsolt R. D. et al. Arch. Int. Pharmacodyn. 1977, 229:327-336), in meta-chlorophenyl piperazine (m-CPP) test on rats (Drug Dev. Res. 1989, 18:119-144) and in apomorphine, tryptamine, norepinephrine (ATN) test in rats (Arch. Int. Pharmacodyn. 1977, 227:238-253).
# (§2) A small concentration of a radioligand having a great affinity for binding to a receptor was incubated with a tissue sample enriched with a certain receptor (1-5 mg of tissue) in a buffered medium (0.2-5 μL). Recombinant human HT2A and HT2C receptors were expressed in CHO-K1 or COS-7 cells and were also used for competitive binding. During incubation the radioligand bound to the receptor. When a binding balance was achieved, the receptors to which the radioligand was bound were separated from those to which said ligand was not bound, and the radioactivity of the receptor/radioligand complex was measured. The interaction of the tested compounds with receptors was tested in competitive binding experiments. Various concentrations of tested compounds were added to the incubation mixture containing a prepared tissue enriched with corresponding receptors and the radioligand. The radioligand binding was inhibited by the test compounds proportionally to the affinity of a certain compound for the receptor and to the concentration of the compound.
# The radioligand used for the determination of binding to 5-HT2A receptor was [^3H]-ketanserin and the tissue used was human cortex or recombinant 5-HT2A receptor expressed in CHO-K1 cells.
# 5-HT2C receptor = target: T2, 5-HT2C receptor (Homo sapiens, UniProt P28335); experiment: radioligand binding assay for 5-HT2C receptor ([3H]-mesulergine); settings: choroid plexus or recombinant 5-HT2C receptor expressed in CHO-K1 cells; for IC50: read-out: binding affinity to 5-HT2C serotonin receptor expressed as IC50 value; for Ki: read-out: binding affinity to 5-HT2C serotonin receptor, Ki value
# T2 construct: expressed in transfected cells; host or cells: CHO-K1 (or choroid plexus tissue)
# T2 sequence (P28335 33-458): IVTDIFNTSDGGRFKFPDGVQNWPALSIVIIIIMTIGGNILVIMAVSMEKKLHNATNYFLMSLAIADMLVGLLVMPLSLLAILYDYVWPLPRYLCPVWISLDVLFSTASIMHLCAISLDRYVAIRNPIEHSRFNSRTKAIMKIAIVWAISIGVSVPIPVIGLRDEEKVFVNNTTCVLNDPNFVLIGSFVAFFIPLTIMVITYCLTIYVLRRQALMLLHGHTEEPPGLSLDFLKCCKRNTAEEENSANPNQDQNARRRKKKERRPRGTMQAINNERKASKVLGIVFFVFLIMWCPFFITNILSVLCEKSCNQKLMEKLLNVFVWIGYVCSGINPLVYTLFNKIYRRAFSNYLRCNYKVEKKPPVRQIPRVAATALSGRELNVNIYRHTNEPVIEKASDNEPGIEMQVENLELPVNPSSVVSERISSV
# Protocol: as §1, §2
# The radioligand used for the determination of binding to 5-HT2C receptor was [^3H]-mesulergine and the tissue used was choroid plexus or recombinant 5-HT2C receptor expressed in CHO-K1 cells.
# σ1 receptor = target: T3, σ1 receptor (Homo sapiens, UniProt Q99720); experiment: in vitro binding affinity to σ1 receptor, Jurkat cell membranes, [3H]haloperidol; settings: for IC50: read-out: binding affinity to σ1 receptor expressed as IC50 value
# T3 construct: endogenous in cells; host or cells: Jurkat cell membranes
# T3 sequence (Q99720 whole entry): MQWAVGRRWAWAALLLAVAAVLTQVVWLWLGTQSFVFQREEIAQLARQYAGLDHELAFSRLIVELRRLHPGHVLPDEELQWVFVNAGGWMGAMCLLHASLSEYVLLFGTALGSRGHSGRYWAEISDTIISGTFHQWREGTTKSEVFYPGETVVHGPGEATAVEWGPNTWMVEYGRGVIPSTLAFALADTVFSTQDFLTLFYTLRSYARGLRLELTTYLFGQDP
# Protocol: as §1
# Jurkat cell were grown in medium, RPMI supplemented with 10% fetal bovine serum, 100 U/ml penicillin and 100 μg/ml streptomycin, collected and their suspension homogenized. After centrifugation, the membrane fraction was separated, resuspended in phosphate buffer (pH=7.5) and stored in small aliquots in liquid nitrogen until use. Binding of different radiolabeled ligands to Jurkat cell membranes was measured as described previously (Ramamoorthy et al., 1995). To characterize the σ binding sites in the Jurkat cell line, [^3H]haloperidol was first used as the ligand. Haloperidol is a high affinity ligand to both type 1 and type 2 σ-receptors. The binding assays were done using Jurkat cell membranes in the presence of [^3H]haloperidol ([…]) alone to determine the total binding, and in the presence of [^3H]haloperidol (10 nM) and unlabeled haloperidol (10 μM) to determine the nonspecific binding. Membranes were incubated with ligands in phosphate buffer for 3 hours at room temperature. After the filter had been washed, radioactivity associated with the filter was determined by liquid scintillation spectrometry.
# mice = experiment: amphetamine-induced hyperlocomotion in mice; type: in vivo; settings: male Swiss OFA mice, per os in saline, test doses of 1 mg/kg and 0,1 mg/kg, dexamphetamine sulphate 2 mg/kg i.p.
# Protocol: Male Swiss OFA mice of a weight 30-35 g were treated with either vehicle (saline) or test compounds 30 minutes prior to hyperlocomotion induction. Dexamphetamine sulphate was administered intraperitoneally at 2 mg/kg. Thirty minutes later, animals were placed in a wooden box 80×80 cm^2 in a room with low light intensity (100 lux) for locomotor activity recording. Locomotor activity was determined during a 30 min period using a video image analyzer. Total duration of movement, occurence of movement and total distance travelled were measured. Haloperidol was tested at the dose of 0,25 mg/kg (prepared in 0.5% methylcellulose) and served as reference substance.
# Compounds were considered as active if in a dose of 10 mg/kg reduced amphetamine-induced hyperlocomotion in experimental animals for 30% and more when compared to vehicle treated control group.
Compound,IC50 (5-HT2A receptor) [nM],Ki (5-HT2A receptor) [nM],IC50 (5-HT2C receptor) [nM],Ki (5-HT2C receptor) [nM],Ki (σ1 receptor) [nM],IC50 (σ1 receptor) [nM],inhibition of amphetamine-induced hyperlocomotion (mice)
"CN(C)CCCOCc1scc2c1-c1ccccc1Oc1ccccc1-2 [dimethyl-[3-(8-oxa-2-thia-dibenzo[e,h]azulen-1-ylmethoxy)-propyl]-amine]",< 200,< 100,< 200,< 100,–,–,–
"NCCCOCc1scc2c1-c1ccccc1Oc1ccccc1-2 [3-(8-oxa-2-thia-dibenzo[e,h]azulen-1-ylmethoxy)-propylamine]",< 200,< 100,< 200,< 100,–,–,–
"CN(C)CCOCc1scc2c1-c1ccccc1Oc1ccc(Cl)cc1-2 [[2-(5-chloro-8-oxa-2-thia-dibenzo[e,h]azulen-1-ylmethoxy)-ethyl]-dimethyl-amine]",< 200,< 100,< 200,< 100,< 100,< 200,–
"CN(C)CCOCc1scc2c1-c1ccccc1Oc1ccccc1-2 [dimethyl-[2-(8-oxa-2-thia-dibenzo[e,h]azulen-1-ylmethoxy)-ethyl]-amine]",< 200,< 100,< 200,< 100,< 100,< 200,–
"[2-(2,8-dithia-dibenzo[e,h]azulen-1-ylmethoxy)-ethyl]-dimethyl-ammonium citrate",–,–,–,–,–,–,40-60%
"CN(C)CCOCc1scc2c1-c1ccccc1Sc1ccccc1-2 [[2-(2,8-dithia-dibenzo[e,h]azulen-1-ylmethoxy)-ethyl]-dimethyl-amine]",< 200,< 100,< 200,< 100,< 100,< 200,–
"CN(C)CCCOCc1scc2c1-c1ccccc1Sc1ccccc1-2 [[3-(2,8-dithia-dibenzo[e,h]azulen-1-ylmethoxy)-propyl]-dimethyl-amine]",< 200,< 100,< 200,< 100,< 100,< 200,–
NCCCOCc1scc2c1-c1cc(Cl)ccc1Oc1ccccc1-2,< 200,< 100,< 200,< 100,–,–,–
